Laboratory results: publication PMC9228468, “Relevance of Therapeutic Drug Monitoring of Tyrosine Kinase Inhibitors in Routine Clinical Practice: A Pilot Study” (Pharmaceutics, 2022)

Legend:
[1] = Therapeutic drug monitoring: plasma levels by HPLC-UV, dose-normalized plasma concentrations; assay type: in vivo, human
Protocol: (§1) Monitoring was carried out in all cases after at least fifteen days from the start of treatment, when the plasma levels of the drug were considered at steady state. Blood samples were extracted just before ingestion of the tablet/s and at different times after ingestion. The drug was administered in the fasted state and patients were told they could eat food after the second blood sample was drawn. Sampling times, which are defined for each drug in Table 1, were selected based on the optimal sampling theory and pharmacokinetic models previously published in the scientific literature. […] The total blood volume extracted was between 4 and 5 mL for each sample. All samples were centrifuged after extraction at 3500 r.p.m. for 10 min at room temperature and the plasma obtained was frozen at −80 °C until bioanalysis.
Bioanalysis was carried out using high-performance liquid chromatography (HPLC) coupled with ultraviolet (UV) detection.
As the stationary phase, an Ultrabase® C18 chromatographic column, 4.6 mm in diameter by 150 mm in length, made of stainless steel and filled with a C18 reversed-phase siliceous substrate with a particle size of 5 µm, was used. A mixture of 40% of 0.02 M ammonium acetate, pH = 7, and 60% acetonitrile: methanol at a ratio of 70:30 (v/v) was used as the mobile phase. The linearity of the technique included a concentration range of 0.05–7.5 µg/mL. The limit of quantification was 0.5 µg/mL. Solid–liquid extraction was used and the analysis time was 9 min.
The stationary phase used was an Ultrabase® C18 chromatographic column, 4.6 mm in diameter by 150 mm in length, made of stainless steel and filled with a C18 reversed-phase siliceous substrate with a particle size of 5 µm. The mobile phase used was a 40% mixture of 0.02 M ammonium acetate, pH = 7, and 60% acetonitrile: methanol at a ratio of 70:30 (v/v). The linearity of the technique included a concentration range of 0.05–5 µg/mL. The limit of quantification was 0.5 µg/mL. Solid–liquid extraction was used and the analysis time was 10 min.
The stationary phase used was a Kromasil® C18 chromatographic column, 4.6 mm in diameter by 150 mm in length, made of stainless steel and filled with a C18 reversed-phase siliceous substrate with a particle size of 5 µm. The mobile phase used was a mixture of acetonitrile and 0.02 M ammonium acetate, pH = 3.5, at a ratio of 53:47 (v/v). The linearity of the technique included a concentration range of 0.02–10 µg/mL. The limit of quantification was 0.2 µg/mL. Liquid–liquid extraction was used and the analysis time was 12 min [51].
The stationary phase used was a Kromasil® C18 chromatographic column, 4.6 mm in diameter by 150 mm in length, made of stainless steel and filled with a C18 reversed-phase siliceous substrate with a particle size of 5 µm. The mobile phase used was a mixture of acetonitrile and 0.02 M ammonium acetate, pH = 3.5, at a ratio of 53:47 (v/v). The linearity of the technique included a concentration range of 0.1–20 µg/mL. The limit of quantification was 0.1 µg/mL. Liquid–liquid extraction was used and the analysis time was 12 min [52].
The program was compiled with the DIGITAL Visual Fortran version 6.6C program. The graphics were made with the S-Plus 6.1 Professional Edition program for Windows (Insightful, Seattle, WA, USA). A one-compartment pharmacokinetic model with first-order absorption and elimination kinetics was selected to describe erlotinib plasma concentrations, as performed previously by other authors. The fixed-effect parameters estimated by the model were V (volume of distribution, L), CL (plasma clearance, L/h) and Ka (absorption constant). The model included plasma ALT concentration and age as covariates in CL, and weight in V.
The model was parameterized in terms of D1 (zero-order absorption duration), V and CL, and included the plasma concentration of α 1-acid glycoprotein as a covariate in CL. […]

[2] = Groups of patients according to exposure and toxicity; assay type: in vivo, human; settings: for % patients, Group 3 / % patients, Group 4: Toxicities: Yes; for % patients, Group 2 / % patients, Group 4: Drug concentrations above target level: Yes
[3] = Incidence of toxicity (CTCAE grades), first vs last monitored cycle; assay type: in vivo, human; settings: for Toxicity: RI G1: renal insufficiency grade 1 (IR G1 for sorafenib)
Protocol: (§2) Patients’ medical records were reviewed with the aim of studying all possible factors related to the patient and the medication that may influence the evolution of the plasma concentrations of TKIs. Sociodemographic and anthropometric, pharmacological treatment, clinical, toxicity and therapeutic drug monitoring data were collected. Treatment response was determined according to the […]. Adverse events were recorded by grade according to the Common Terminology Criteria for Adverse Events version 3.0 (CTCAE v 3.0).
To compare the variation in categorical variables (rash, diarrhea, fatigue, abdominal pain, hypertension, and mucositis) between the first and the last monitored cycle, the non-parametric chi-square test was performed.

[4] = Survival analysis (Kaplan-Meier, PFS and OS); assay type: in vivo, human; settings: real-world cancer patients with TDM
Protocol: as §2
To assess the relationship between treatments protocols and disease progression or mortality, a Kaplan–Meier survival curve was plotted.

[5] = cited from earlier work
[6] = TDM-guided dose adjustment recommendations per monitored cycle; assay type: in vivo, human; settings: for monitored cycles with recommendation to decrease the dose: concentrations above therapeutic range; for monitored cycles with recommendation to increase the prescribed dose: concentrations below target therapeutic range; for monitored cycles with recommendation to suspend/suppress the drug: in vivo
Protocol: Patients included in this study received drugs at doses previously established by their doctors, according to data sheet indications and clinical judgment. In all cases, drug dose was prescribed before the patient enrolled onto this study and was not affected by this study prior to enrollment.
as §1

[7] = last monitored cycle, after TDM and dose adjustments
[8] = Drug concentrations above target level: No
[9] = last monitored cycle, after TDM and dose adjustment

SMILES | mean interpatient variability in dose-normalized plasma concentrations (CV) ([1]; first monitored cycle) [%] | mean interpatient variability in dose-normalized plasma concentrations (CV) [1, 7] [%] | % patients, Group 3 [2, 8] [%] | % patients, Group 2 ([2]; Toxicities: No) [%] | % patients, Group 4 [2] [%] | Toxicity: Anemia G1 ([3]; in vivo) | Toxicity: Anemia G2 ([3]; in vivo) | Toxicity: Diarrhea G2 ([3]; in vivo) | patients who developed toxicity at the start of treatment ([3]; in vivo) [%] | Toxicity: RI G1 [3] | Overall Survival, Median [4] [Months] | Progression-Free Survival, Median [4] [Months] | increase in AUC with high-fat meals [5] | monitored cycles with recommendation to decrease the dose [6] [%] | monitored cycles with recommendation to increase the prescribed dose [6] [%] | monitored cycles with recommendation to suspend/suppress the drug [6] [%] | further results
Cc1ccc(NC(=O)c2ccc(CN3CCN(C)CC3)cc2)cc1Nc1nccc(-c2cccnc2)n1 [Imatinib, imatinib] | 48.91 | 50.84 |  |  |  |  |  |  |  |  |  |  |  |  |  |  | mean interpatient variability in dose-normalized plasma concentrations (CV) ([1]; first monitored cycle, listed as imatinib): 48.9%; mean interpatient variability in dose-normalized plasma concentrations (CV) ([1]; last monitored cycle, after TDM and dose adjustments, listed as imatinib): 50.8%
CS(=O)(=O)CCNCc1ccc(-c2ccc3ncnc(Nc4ccc(OCc5cccc(F)c5)c(Cl)c4)c3c2)o1 [Lapatinib, lapatinib] | 60.7 | 56 | 18.7 | 6.2 | 69.5 | 3 (18.7) n. (%) | 2 (12.5) n. (%) | 1 (6.2) n. (%) | 75 | 6 (37.5) n. (%) | 46 | 8 | more than 3 fold | 8.6 | 14.3 | 8.6 | % patients, Group 1 ([2]; Drug concentrations above target level: No, Toxicities: No): 6.2%; toxicities detected ([3]; after performing TDM): 5 cases; Patients with toxicity ([3]; at start of treatment): 12 (75.0) n. (%); toxicities detected ([3]; first monitored cycle): 25 cases; reduction of toxicity events by TDM ([3]; first vs last monitored cycle): 80%; Toxicity: Anemia G3 ([3]; in vivo): 1 (6.2) n. (%); Toxicity: Diarrhea G1 ([3]; in vivo): 2 (12.5) n. (%); Toxicity: Diarrhea G3 ([3]; in vivo): 1 (6.2) n. (%); Toxicity: Mucositis G3 ([3]; in vivo): 1 (6.2) n. (%); Toxicity: Pain ([3]; in vivo): 2 (12.5) n. (%); Toxicity: Skin rash G1 ([3]; in vivo): 1 (6.2) n. (%); Toxicity: Skin rash G3 ([3]; in vivo): 1 (6.2) n. (%); analytical parameters related to toxicity and defined toxicities, first vs last monitored cycle ([3]; in vivo): no significant differences; Toxicity: Neutr. G3 ([3]; neutropenia grade 3): 2 (12.5) n. (%); Toxicity: RI G2 ([3]; renal insufficiency grade 2): 2 (12.5) n. (%); interpatient variability in exposure, AUC [5]: 42–117%; interpatient variability in exposure, Ctrough [5]: 55–97%; t1/2 in severe liver failure relative to normal liver function [5]: 3 fold; increase of mean AUC in patients with severe liver failure ([5]; vs normal liver function): more than 60%; monitored cycles with recommendation to maintain the current dose ([6]; concentrations within therapeutic range): 68.6%
CNC(=O)c1cc(Oc2ccc(NC(=O)Nc3ccc(Cl)c(C(F)(F)F)c3)cc2)ccn1 [Sorafenib, sorafenib] | 89.7 | 72.5 | 9.1 | 54.4 | 9.1 | 2 (18.2) n. (%) | 1 (9.1) n. (%) | 1 (9.1) n. (%) | 63.3 | 2 (18.2) n. (%) | 9 | 9 |  | 6.9 | 17.2 | 3.4 | Toxicity: Abdominal pain ([3]; in vivo): 2 (18.2) n. (%); patients with anemia [3, 9]: 50%; patients with grade 3 neutropenia [3, 9]: 25%; Toxicity: Thromb. G1 ([3]; trombopenia grade 1): 1 (9.1) n. (%); dose above which gastrointestinal absorption saturates [5]: greater than 800 mg; variability in exposure between patients, AUC [5]: 12–117%; variability in exposure between patients, apparent oral Cl [5]: 13–80%
Cc1cn(-c2cc(NC(=O)c3ccc(C)c(Nc4nccc(-c5cccnc5)n4)c3)cc(C(F)(F)F)c2)cn1 [nilotinib] |  |  |  |  |  |  |  |  |  |  |  |  | up to 80% |  |  |  | 
Cc1ccc(Nc2nccc(N(C)c3ccc4c(C)n(C)nc4c3)n2)cc1S(N)(=O)=O [pazopanib] |  |  |  |  |  |  |  |  |  |  |  |  |  |  |  |  | AUC when administered with food compared to fasted state [5]: doubled; dose above which plasma AUC does not increase ([5]; solubility limitations in the digestive tract): greater than 800 mg
